This is an account of results in PMC6214715 (Journal of veterinary pharmacology and therapeutics, 2018).

SMILES strings stand for the structures. Read-outs that look alike come from different tables or passages of the source.

The conditions of series [1]: dogs, after tramadol administration; ref Kukanich, 2011; Giorgi, 2009; cited from earlier work.
The conditions of series [2]: rats, after tramadol administration; ref Sheikholeslami, 2016; cited from earlier work.
The conditions of series [3]: dog urine; ref Lintz, 1981; cited from earlier work.
The next series concerns μ-opioid. The settings on record: in vitro testing; ref Gillen, 2000; cited from earlier work.
Series [4] concerns (+)-M5 formation from (+)-M2 in pooled DLMs. As to the kind of experiment: in vitro. The note with it: dog.
Series [5] addresses T1, CYP2D15 (Canis lupus familiaris, UniProt Q29473).
T1 sequence (Q29473 1-500): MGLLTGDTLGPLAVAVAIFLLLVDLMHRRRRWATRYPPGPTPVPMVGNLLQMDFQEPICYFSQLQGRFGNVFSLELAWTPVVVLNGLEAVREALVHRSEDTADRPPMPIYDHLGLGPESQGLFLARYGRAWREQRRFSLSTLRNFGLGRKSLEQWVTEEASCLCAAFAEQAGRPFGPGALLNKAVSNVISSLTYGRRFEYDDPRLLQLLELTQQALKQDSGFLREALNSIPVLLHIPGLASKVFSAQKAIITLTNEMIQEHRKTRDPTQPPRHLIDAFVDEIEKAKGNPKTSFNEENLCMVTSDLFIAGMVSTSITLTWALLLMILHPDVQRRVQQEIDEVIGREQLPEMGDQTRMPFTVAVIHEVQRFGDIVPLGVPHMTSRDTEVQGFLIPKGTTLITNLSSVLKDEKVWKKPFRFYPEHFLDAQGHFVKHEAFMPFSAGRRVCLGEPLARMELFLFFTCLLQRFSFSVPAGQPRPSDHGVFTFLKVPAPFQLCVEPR
Put plainly: in vitro. The settings on record: dog, recombinant enzyme.

The target of series [6] is T1, CYP2D15. The series is classed as in vitro ADME, canine. The settings on record: recombinant CYP2D15; (+)-M1 10 μM, (+)-M2 0.5 μM.
The subject of the next series is cat liver microsomes. The series is classed as in vitro ADME. The note with it: for formation to metabolism ratio: feline liver microsomes, formation rate from (±)-tramadol (Perez Jimenez, 2016) / rate of (+)-M5 formation from the (+)-metabolite. On the technique in general: Liver microsomes are a subcellular fraction often used to study metabolism.
A further series deals with dog liver microsomes. The series is classed as in vitro ADME. The note with it: for Km / Vmax: formation of (+)-M5 from substrate; for formation to metabolism ratio: DLMs, formation rate from (±)-tramadol (Perez Jimenez, 2016) / rate of (+)-M5 formation from the (+)-metabolite.
The next series has as its system human liver microsomes. It counts as in vitro ADME. The settings on record: human liver microsomes; formation rate from (±)-tramadol (Perez Jimenez, 2016) / rate of (+)-M5 formation from the (+)-metabolite.
Series [7] has as its system (+)-M5 formation from (+)-M1 in pooled DLMs. As to the kind of experiment: in vitro. The settings on record: dog.
In another series the target is T2, CYP2C21 (Canis lupus familiaris, UniProt P56594).
T2 sequence (P56594 1-487): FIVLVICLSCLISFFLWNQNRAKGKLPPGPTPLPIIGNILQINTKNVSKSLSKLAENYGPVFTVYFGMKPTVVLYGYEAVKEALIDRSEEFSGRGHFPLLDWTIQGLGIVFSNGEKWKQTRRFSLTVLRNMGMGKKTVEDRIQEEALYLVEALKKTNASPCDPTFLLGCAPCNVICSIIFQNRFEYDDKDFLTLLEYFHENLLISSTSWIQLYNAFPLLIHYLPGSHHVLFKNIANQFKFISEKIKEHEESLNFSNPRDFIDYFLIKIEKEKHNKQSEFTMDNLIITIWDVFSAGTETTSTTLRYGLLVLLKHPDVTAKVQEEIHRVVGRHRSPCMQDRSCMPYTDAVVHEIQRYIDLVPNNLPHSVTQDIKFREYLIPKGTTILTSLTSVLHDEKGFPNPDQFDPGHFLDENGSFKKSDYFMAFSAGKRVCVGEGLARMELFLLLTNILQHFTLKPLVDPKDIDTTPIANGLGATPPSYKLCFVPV
As to the kind of experiment: in vitro. The settings on record: dog, recombinant enzyme.

Series [8] relates to CYP2D15. The note with it: CYP2D15 mediated dextromethorphan o-demethylation in DLMs; ref Aidasani, 2008; cited from earlier work.

`CNCC1CCCCC1(O)c1cccc(O)c1` (centres unmarked) [M5, N,O-didesmethyltramadol]: the “plasma concentration higher than M1 concentrations” value in [1] is listed as “about 20 fold”. In series [2], the “CSF to plasma concentration ratio” value was “less than 0.1” and the “CSF to plasma ratio less than M1” value is 3 fold. For the same compound, the “M5 and M5 conjugates as a percentage of total metabolites in urine” value in [3] is 43%. Moreover, the “weaker μ-opioid agonist efficacy and potency compared with M1” value in the series with μ-opioid was “about 30 times”.
`C=C[C@H]1C[N@@]2CC[C@H]1C[C@@H]2[C@@H](O)c1ccnc2ccc(OC)cc12` [quinidine]: the inhibition at 5 min, 10 μM (in series [4]; on CYP2D15 [5]) was greater than 70% throughout.
`CNCC1CCCCC1(O)c1cccc(OC)c1` (single isomer, unassigned; (+)) [(+)-M2, (+)-N-desmethyltramadol]: the “formation rate of (+)-M5 (in words)” value at CYP2D15 [6] is recorded as “only detected for CYP2D15”. In addition, the “(+)-M5 formation rate (in words)” value with cat liver microsomes (pooled cat liver microsomes (n = 16), (+)-M1 at 10 μM, (+)-M2 at 0.5 μM) is “intermediate between human and DLMs”; in the series with dog liver microsomes (pooled dog liver microsomes (n = 59), (+)-M1 at 10 μM, (+)-M2 at 0.5 μM), “highest activities”. Besides, the Km (in general, the concentration of substrate that gives half-maximal velocity) with dog liver microsomes (Dog 10 liver microsomes) came to 0.46 µM; in the series with dog liver microsomes (Dog 31 liver microsomes) it was 0.39 µM; with dog liver microsomes (Dog 46 liver microsomes), 0.38 µM; with dog liver microsomes (pDLM (liver microsomes pooled from 59 dogs)), 0.56 µM. Besides, the Vmax in the series on dog liver microsomes (Dog 10 liver microsomes) was determined as 27 pmol/min/mg protein; in the series with dog liver microsomes (Dog 31 liver microsomes), 23 pmol/min/mg protein; in the series on dog liver microsomes (Dog 46 liver microsomes) it was 39 pmol/min/mg protein; in the series with dog liver microsomes (pDLM (pooled from 59 dogs)) it was 50 pmol/min/mg protein.
Take `CNCC1CCCCC1(O)c1cccc(OC)c1` (centres unmarked) [M2, N-desmethyltramadol]: the “CSF to plasma concentration ratio” value in [2] was 0.4. Further, the “formation to metabolism ratio” value in the series on cat liver microsomes is listed as 1.7; with dog liver microsomes it was 3.1; in the series with human liver microsomes, 2.9.
On to `Nc1ccc(S(=O)(=O)Nc2ccnn2-c2ccccc2)cc1` [sulfaphenazole], for which the inhibition at 5 min, 100 μM (in [4]; on CYP2D15 [5]) was less than 50% throughout. In addition, the inhibition at 20 min, 100 μM (in [7]; at CYP2C21) was greater than 50% each time.
Turning to `COc1cccc(C2(O)CCCCC2CN(C)C)c1` (centres unmarked) [tramadol, reference compound], the “CSF to plasma concentration ratio” value in series [2] is reported as 0.44.
Turning to `CN(C)C[C@H]1CCCC[C@]1(O)c1cccc(O)c1` [M1, O-desmethyltramadol], the “CSF to plasma concentration ratio” value in series [2] is given as 0.3. Further, the “formation to metabolism ratio” value in the series with cat liver microsomes was found to be 1926; in the series on dog liver microsomes, 42; in the series on human liver microsomes, 71.
Take `CC(=O)N1CCN(c2ccc(OCC3COC(Cn4ccnc4)(c4ccc(Cl)cc4Cl)O3)cc2)CC1` (centres unmarked) [ketoconazole]: in the series on CYP2D15 [8], the IC50 (as a rule, the point on the concentration scale where inhibition reaches its midpoint) is 0.47 µM.
